Source: patent US20210315837A1, “CANNABINOIDS FOR THE TREATMENT OF GRAM-POSITIVE INFECTIONS INCLUDING ANTIBIOTIC-RESISTANT BACTERIAL STRAINS” (priority 2018, published 2021)
Converted amounts (≈) assume the structure as drawn. Where two headings read alike, the source gives them in different places.

Key:
MRS USA 300 = assay: IC50, MIC and MBC against MRS USA 300; type: cell-based, Staphylococcus aureus
Procedure: (§1) As used herein, the term “minimum inhibitory concentration (MIC)” refers to the lowest concentration of an antimicrobial agent that will inhibit the visible growth of a microorganism after overnight incubation. MIC values against bacteria may be determined by standard methods. See also P. A. Wayne, Methods for Dilution Antimicrobial Tests for Bacteria that Grow Aerobically; Approved Standard, Ninth Edition, 2012, CLSI Document M07-A9, Vol. 32 No. 2, which is incorporated by reference herein in its entirety.

MRS USA 400 = assay: IC50, MIC and MBC against MRS USA 400; type: cell-based, Staphylococcus aureus
Procedure: as §1

MRS 33591 = assay: IC50, MIC and MBC against MRS 33591; type: cell-based, Staphylococcus aureus
Procedure: as §1

S. aureus 29213 = assay: IC50, MIC and MBC against S. aureus 29213; type: cell-based
Procedure: As used herein, the term “minimum inhibitory concentration (MIC)” refers to the lowest concentration of an antimicrobial agent that will inhibit the visible growth of a microorganism after overnight incubation. MIC values against bacteria may be determined by standard methods.

[1] = test system: MRS 1708 (Mupirocin-resistant); assay: IC50, MIC and MBC against MRS 1708 (Mupirocin-resistant); type: cell-based, Staphylococcus aureus; set-up: AMC: unit not given here
Procedure: as §1

[2] = MRS USA 300, tested Conc. in μg/mL
[3] = MRS USA 400, tested Conc. in μg/mL
[4] = MRS 33591, tested Conc. in μg/mL
[5] = S. aureus 29213, tested Conc. in μg/mL
[6] = S. aureus 29213, tested Conc. in μg/mL, NA given without definition
[7] = Mupirocin-resistant MRS (Table 11), in µg/mL
[8] = Mupirocin-resistant MRS (Table 11)

| Compound | MIC (MRS USA 300; [2]) | IC50 (MRS USA 300; Staphylococcus aureus, USA300) [µg/mL] | MIC (MRS USA 400; [3]) | IC50 (MRS USA 400; Staphylococcus aureus, USA400) [µg/mL] | IC50 (MRS 33591; Staphylococcus aureus) [µg/mL] | MIC (MRS 33591; Staphylococcus aureus) [µg/mL] | IC50 (S. aureus 29213; Staphylococcus aureus, 29213) [µg/mL] | MIC (S. aureus 29213; Staphylococcus aureus, S. aureus 29213, tested Conc. in μg/mL, read-out: MIC) [µg/mL] | IC50 ([1]; Staphylococcus aureus) [µg/mL] | IC50 (MRS USA 300; [2]) | IC50 (MRS USA 400; [3]) | IC50 (MRS 33591; [4]) | MIC (MRS 33591; [4]) | MIC (S. aureus 29213; [5]) | IC50 (S. aureus 29213; [6]) | IC50 [1, 7] | MBC (MRS USA 300; [2]) | MBC (MRS USA 400; [3]) | MBC (MRS 33591; [4]) | AMC [1, 8] |
| --- | --- | --- | --- | --- | --- | --- | --- | --- | --- | --- | --- | --- | --- | --- | --- | --- | --- | --- | --- | --- |
| C=C(C)[C@@H]1CCC(C)=C[C@H]1c1c(O)cc(CCCCC)c(C(=O)O)c1O [Cannabidiolic acid] | 20 ± 0 | 6.11 (≈ 17 µM) | 13.33 | 4.99 (≈ 13.9 µM) | 7.27 (≈ 20.3 µM) | 20 (≈ 55.8 µM) | 6.83 (≈ 19.1 µM) | 16.7 (≈ 46.5 µM) | 5.57 ± 0.68 (≈ 15.5 µM) |  |  |  |  |  |  |  |  |  |  |  |
| Tetrahydrocannabigerolic acid | 20 ± 0 |  | 13.33 |  |  |  |  |  |  | 2.98 | 2.79 | 4.33 | 20 ± 0 | 20 ± 0 | 3.67 | 3.24 ± 0.13 |  |  |  |  |
| CC(C)=CCCC1(C)C=Cc2c(O)cc(C)cc2O1 (stereo not shown) [Cannabichromeorcin] | 10 ± 0 |  | 10 ± 0 |  |  |  |  |  |  | 5.41 | 5.9 | 5.56 | 10 ± 0 | 10 ± 0 | 6.94 | 5.57 ± 0.27 | 13.33 | 20 ± 0 | 20 ± 0 | 13.33 ± 5.77 |
| CCCCCc1cc(O)c2c(c1)OC(C)(CCC=C(C)C)C=C2 (stereo not shown) [Cannabichromene] |  | 6.44 (≈ 20.5 µM) |  | 7.28 (≈ 23.2 µM) | 2.58 (≈ 8.2 µM) | 5 (≈ 15.9 µM) | 6.96 (≈ 22.1 µM) |  | 5.04 ± 0.55 (≈ 16 µM) |  |  |  |  |  |  |  |  |  |  |  |
| CCCCCc1cc(O)c2c(c1)OC(C)(C)c1cc(O)c(C)cc1-2 [8-Hydroxycannabinol] | 5 ± 0 |  | 5 ± 0 |  |  |  |  |  |  | 1.58 | 1.82 | 2.33 | 5 ± 0 | 5 ± 0 | 1.2 | 2.15 ± 0.22 |  |  |  |  |
| CC(C)=CCC/C(C)=C\Cc1c(O)cc(C)cc1O [(Z)-Cannabigerorcin] | 16.67 |  | 13.33 |  |  |  |  |  |  | 6.46 | 7.27 | 9.48 | 20 ± 0 | 16.67 | 8.12 | 6.93 ± 1.54 |  |  |  |  |
| CCCCCc1cc(O)c2c(c1)OC(C)(C)[C@@H]1CC=C(C)C[C@@H]21 [Δ8-Tetrahydrocannabinol] | 5 ± 0 |  | 10 ± 0 |  |  |  |  |  |  | 1.91 | 2.55 | 1.43 | 2.5 ± 0 | 2.5 ± 0 | 1.47 | 1.82 ± 0.08 |  |  | 10 ± 0 | 10 ± 8.66 |
| CCCCCc1cc(O)c(C/C=C(\C)CCC2OC2(C)C)c(O)c1 (stereo not shown) [6,7-Epoxycannabigerol] | 20 ± 0 |  | 20 ± 0 |  |  |  |  |  |  | 7.53 | 8.67 | 6.73 | 13.33 | 16.67 | 5.83 | 7.74 ± 1.17 |  |  |  | 20 ± 0 |
